Where two headings read alike, the source gives them in different places.
Columns and labels:
[1] = system: patients with major depressive disorder (MDD) resistant to treatment with SSRIs
Excerpt: Using the sequential parallel design […] For those randomly assigned to the placebo/placebo sequence, both responders and non-responders to placebo during the first phase (n=25) remain on placebo during the second phase. […] Data from the previous double-blind, placebo-controlled study (Trial 1) can be pooled into the instant study (Trial 2) to provide a more accurate estimate of the placebo effect size, with a weighted average from the two Phases 1 (one from Trial 1 and one from Trial 2) and two Phases 2 (one from Trial 1 and one from Trial 2).
Once patients agree to participate in the study by signing the informed consent document, a full medical and psychiatric history is taken and a physical examination is performed. Screen rating scales are performed. […] The double-blind treatment lasts 60 days, during which patients are seen every 10 days (Visits 1 to 6 of Phase 1—See Table 4 below). Subjects are assigned randomization numbers in consecutive order. The randomization list is provided by a computer-generated random-number list and is maintained by the research pharmacist. In addition, the presence of any side effect or adverse event is carefully documented with the SAFTEE-SI [54]. Reasons for premature discontinuation, including intolerable side effects, are recorded.
All patients are asked to take one tablet of blinded study medication in the morning, in addition to their stable dose of ongoing SSRI treatment. […] Therefore, for patients randomly assigned to the placebo/placebo sequence, the tablets of study medication are placebo during both phases of the study.
The primary efficacy measure can include the change in 17-item Hamilton Rating Scale for Depression (HAM-D-17) score. […] A remission is, for example, defined as a HAM-D-17 score less than 8 at endpoint. Secondary measures of efficacy can include change in CGI-severity, with “clinical response defined” as CGI-S of 1 or 2 at endpoint. Patients with a CGI-I score greater than 5 at any post baseline visit or a 50 percent or greater worsening of depressive symptoms from baseline to that visit are discontinued from the study. Subjects are also discontinued from the study with any emergence of suicidality, homicidality, mania, or psychosis. Additional exemplary instruments that can be administered according to the study schedule include the following: • (1) Structured Clinical Interview for DSM-IV: The SCID-I/P, administered by the clinician, proceeds by modules to diagnose the different Axis I disorders. Questions are asked exactly as written, and each is based on the individual criteria from DSM-IV. Answers are generally rated on a scale of 1-3 (1=doubtful, 2=probable, 3=definite), and, based on the number of positive answers, a diagnosis is determined by a clinician. While the entire SCID-UP is administered at screen, the mood module is administered at each follow up visit. • (2) The MGH Antidepressant Treatment History Questionnaire (MGH-ATR): The MGH-ATR provides specific criteria for the adequate dose and adequate length of a trial for it to be considered a failure, thus allowing clinicians to systematically collect data aimed at assessing the degree of treatment-resistance of the current major depressive episode. • (3) The 28-item Hamilton Depression Scale (HAM-D-28): This version allows scoring of the HAM-D-17, 21-, 25-, and 28-item scales. This instrument is completed by the clinician by using a structured interview and defined anchor points, and aims to quantify the degree of depression over the past 7 days. The HAM-D is the most widely studied instrument for depression, and its reliability and validity are high. • (4) Clinical Global Impressions-Severity and Improvement (CGI-S, CGI-I): These two instruments are scored 1-7 by the clinician based on assessment of the patient's clinical status. They measure, based on history and scores on other instruments: a) Depressive severity (CGI-S) and b) Clinical Improvement (CGI-I). […] Safety Measurements […]

[2] = system: patients with major depressive disorder (MDD) resistant to treatment with SSRIs; remark: listed apart in the source
Description: Documentation of the presence of any side effect or adverse event is completed at every visit using the SAFTEE-SI. Subjects can contact a clinician at any time between visits concerning adverse events or worsening of symptoms. Suicidal ideation is assessed at each visit. Subjects who are felt by the study clinician to be at high risk for suicide are discontinued from the study and referred for hospitalization and further treatment if clinically indicated (See Tables 4 & 5 below).
One-way analysis of variance can be used to assess differences in total number of SAFTEE-SI AEs between baseline and endpoint.

[3] = 15 mg/day adjunct to SSRI, Phase 1
[4] = 15 mg/day adjunct to SSRI, Phase 2 (Phase 1 completers/non-responders only)
[5] = 15 mg/day adjunct to SSRI, pooled Phases 1 and 2 (SPCD)
[6] = L-methylfolate 15 mg (n = 42) with SSRI
[7] = L-methylfolate 15 mg vs placebo

CN1c2c(nc(N)[nH]c2=O)NC[C@@H]1CNc1ccc(C(=O)N[C@@H](CCC(=O)O)C(=O)O)cc1 [6(S)-5-MTHF, 6(S)-5-methyltetrahydrofolate]
CGI-S Mean score reduction (SD) [1, 3]: −1.3 (0.9)
HDRS-17 % Remission [1, 3]: 15.7% (3)
HDRS-17 % Response [1, 3]: 38.8% (7)
HDRS-17 Mean score reduction (SD) [1, 3]: −7.5 (5.0)
QIDS-SR % Remission [1, 3]: 21.0% (4)
QIDS-SR % Responsive [1, 3]: 36.8% (7)
QIDS-SR Mean score reduction (SD) [1, 3]: −8.1 (5.3)
CGI-S Mean score reduction (SD) [1, 4]: −0.5 (1.0)
HDRS-17 % Remission [1, 4]: 11.1% (2)
HDRS-17 % Response [1, 4]: 27.7% (5)
HDRS-17 Mean score reduction (SD) [1, 4]: −3.8 (6.2)
QIDS-SR % Remission [1, 4]: 8.5% (1)
QIDS-SR % Responsive [1, 4]: 11.1% (2)
QIDS-SR Mean score reduction (SD) [1, 4]: −1.3 (4.9)
CGI-S Mean score reduction [1, 5]: −0.92
QIDS-SR % Remission [1, 5]: 12.3%
QIDS-SR % Responsive [1, 5]: 23.9%
QIDS-SR Mean score reduction [1, 5]: −4.7
response rate (50% or greater reduction in HAM-D-17) vs placebo group (in words) ([1]; SSRI + 15 mg/day, after 30 days, SPCD, FIG. 3A): higher
reduction in scores of HAM-D-17, QIDS-SR and CGI-S vs placebo group (in words) ([1]; SSRI + 15 mg/day, after 30 days, SPCD, FIG. 3B): greater degree of reduction
percentage of remitters (HAM-D-17 <8 or QIDS-SR ≦5) vs placebo (in words) ([1]; SSRI + 15 mg/day, after 30 days, FIGS. 3C-3D): no significant difference
Cardiovascular side effects, Frequency (%) [2, 6]: (0%)
Cardiovascular side effects, Frequency (number of subjects) [2, 6]: 0
Gastrointestinal side effects, Frequency (number of subjects) [2, 6]: 7
Infectious side effects, Frequency (number of subjects) [2, 6]: 5
Miscellaneous side effects, Frequency (%) [2, 6]: (2.4%)
Miscellaneous side effects, Frequency (number of subjects) [2, 6]: 1
Psychological side effects, Frequency (%) [2, 6]: (9.5%)
Psychological side effects, Frequency (number of subjects) [2, 6]: 4
Sexual side effects, Frequency (%) [2, 6]: (2.4%)
Sexual side effects, Frequency (number of subjects) [2, 6]: 1
Sleep side effects, Frequency (%) [2, 6]: (2.4%)
Sleep side effects, Frequency (number of subjects) [2, 6]: 1
Somatic side effects, Frequency (number of subjects) [2, 6]: 6
Cardiovascular side effects, NNH [2, 7]: =placebo
Gastrointestinal side effects, NNH [2, 7]: 53
Infectious side effects, NNH [2, 7]: <placebo
Miscellaneous side effects, NNH [2, 7]: <placebo
Psychological side effects, NNH [2, 7]: <placebo
Sexual side effects, NNH [2, 7]: 98
Sleep side effects, NNH [2, 7]: <placebo
Somatic side effects, NNH [2, 7]: <placebo
number of adverse events by SAFTEE-SI vs placebo (in words) ([2]; SSRI + 15 mg/day): no significant differences
discontinuation from the study due to overall adverse side-effects or exclusion events (in words) ([2]; Trial 2, FIG. 3E): no difference

From US9540691B2, “Assays and methods for selecting a treatment regimen for a subject with depression” (THE GENERAL HOSPITAL CORPORATION, priority 2011, dated 2017)
